Source: patent US20260215431A1, “AN HERBICIDAL COMBINATION, COMPOSITION AND METHOD OF CONTROLLING WEEDS USING THE SAME” (priority 2023, published 2026)

Assays:
[1] = test system: Viola arvensis, Bromus spp., Lolium spp., Agropyron repens and Urtica urens; conditions: reported by Hoechst et al., 1991; cited from earlier work
[2] = test system: Borreria verticillata; experiment: Greenhouse post-emergence herbicidal efficacy on Borreria verticillata; type: in vivo; conditions: 14 DAA
Procedure: (§1) The expected efficacy of a combination of L-glufosinate ammonium and the other herbicides was calculated using the well-established Colby method. Any difference between the observed and “expected” efficacy could be attributed to synergy between the two compounds.
(§2) In the Colby method, the expected (or predicted) response of a combination of herbicides is calculated by taking the product of the observed response for each individual component of the combination when applied alone, divided by 100, and subtracting this value from the sum of the observed response for each component when applied alone. An unexpected enhancement in efficacy of the combination is then determined by comparing the observed response of the combination to the expected (or predicted) response as calculated from the observed response of each individual component alone. If the observed response of the combination is greater than the expected (or predicted) response, or stated conversely, if the difference between the observed and expected response is greater than zero, then the combination is said to be synergistic or unexpectedly effective (Colby, S. R., Weeds, 1967(15), p. 20-22). The Colby method requires only a single dose of each herbicide applied alone and the mixture of both doses. The formula used to calculate the expected efficacy (EE) which was compared with the observed efficacy (OE) to determine the efficacy of the present disclosure is explained hereinbelow:
(§3) The expected efficacy for a combination of two active ingredients is as follows:
(§4) The expected efficacy for a combination of three active ingredients is as follows:
(§5) [formula] • wherein, • A=Observed efficacy of active ingredient A at the same concentration as used in the mixture. • B=Observed efficacy of the active ingredient B at the same concentration as used in the mixture. • C=Observed efficacy of the active ingredient C at the same concentration as used in the mixture.
(§6) Greenhouse trials were conducted to evaluate the efficacy of the combination of L-glufosinate ammonium and metribuzin, L-glufosinate ammonium and metribuzin+sulfentrazone and L-glufosinate ammonium and metribuzin+oxyfluorfen—on weeds Borreria verticillate, Euphorbia heterophylla.
(§7) The soil used was sandy clay loam—sand: 68.0%; silt: 8.0%; clay: 24.0%.
(§8) All treatments were in 4 replications per treatment with a spray volume of 150 L/ha.
The percentage efficacy was calculated at 14 days after application (DAA). The target weed was Borreria verticillata, and the concentration of the herbicide and the results are recorded in Table 1.
The percentage efficacy was calculated at 14 DAA. The target weed was Borreria verticillata, and the concentration of the herbicides and the results are recorded in the Table 3.
The percentage efficacy was calculated at 14 DAA. The target weed was Borreria verticillata, and the concentration of the herbicides and the results are recorded in Table 5.

[3] = test system: Euphorbia heterophylla; experiment: Greenhouse post-emergence herbicidal efficacy on Euphorbia heterophylla; type: in vivo
Procedure: as §1, §2, §3, §4, §5, §6, §7, §8
The percentage efficacy was calculated at 7, 14 and 21 DAA. The target weed was Euphorbia heterophylla, and the concentration of the herbicide and the results are recorded in Table 2.
The percentage efficacy was calculated at 14, 21 and 28 DAA. The target weed was Euphorbia heterophylla, and the concentration of the herbicides and the results are recorded in Table 4.
The percentage efficacy was calculated at 14 and 21 DAA. The target weed was Euphorbia heterophylla, and the concentration of the herbicides and the results are recorded in Table 6.

CP(=O)(O)CCC(N)C(=O)O (racemic) [glufosinate, DL-homoalanin-4-yl(methyl)phosphinic acid]
Control of weed species by glufosinate [1]: either not combated, or only weakly combated

CP(=O)(O)CC[C@H](N)C(=O)O.N [L-glufosinate ammonium, ammonium (2S)-2-amino-4-(methylphosphinato)butyric acid]
Observed efficacy (%) of L-glufosinate ammonium (150 g a.i./ha) ([2]; Table 1): 80% | Observed efficacy (%) of L-glufosinate ammonium (150 g a.i./ha) ([2]; Table 3): 80% | Observed efficacy (%) of L-glufosinate ammonium (150 g a.i./ha) ([2]; Table 5): 80% | Observed efficacy (%) of L-glufosinate ammonium (150 g a.i./ha) ([3]; Table 2, 7 DAA): 95% | Observed efficacy (%) of L-glufosinate ammonium (150 g a.i./ha) ([3]; Table 2, 14 DAA): 85% | Observed efficacy (%) of L-glufosinate ammonium (150 g a.i./ha) ([3]; Table 2, 21 DAA): 70% | Observed efficacy (%) of L-glufosinate ammonium (150 g a.i./ha) ([3]; Table 4, 14 DAA): 88% | Observed efficacy (%) of L-glufosinate ammonium (150 g a.i./ha) ([3]; Table 4, 21 DAA): 85% | Observed efficacy (%) of L-glufosinate ammonium (150 g a.i./ha) ([3]; Table 4, 28 DAA): 85% | Observed efficacy (%) of L-glufosinate ammonium (150 g a.i./ha) ([3]; Table 6, 14 DAA): 85% | Observed efficacy (%) of L-glufosinate ammonium (150 g a.i./ha) ([3]; Table 6, 21 DAA): 70%

CSc1nnc(C(C)(C)C)c(=O)n1N [Metribuzin]
Observed efficacy (%) of metribuzin (252 g a.i./ha) ([2]; Table 1): 30% | Observed efficacy (%) of metribuzin (252 g a.i./ha) ([2]; Table 3): 30% | Observed efficacy (%) of metribuzin (252 g a.i./ha) ([2]; Table 5): 55% | Observed efficacy (%) of metribuzin (252 g a.i./ha) ([3]; Table 2, 7 DAA): 35% | Observed efficacy (%) of metribuzin (252 g a.i./ha) ([3]; Table 2, 14 DAA): 25% | Observed efficacy (%) of metribuzin (252 g a.i./ha) ([3]; Table 2, 21 DAA): 15% | Observed efficacy (%) of metribuzin (252 g a.i./ha) ([3]; Table 4, 14 DAA): 30% | Observed efficacy (%) of metribuzin (252 g a.i./ha) ([3]; Table 4, 21 DAA): 20% | Observed efficacy (%) of metribuzin (252 g a.i./ha) ([3]; Table 4, 28 DAA): 10% | Observed efficacy (%) of metribuzin (252 g a.i./ha) ([3]; Table 6, 14 DAA): 85% | Observed efficacy (%) of metribuzin (252 g a.i./ha) ([3]; Table 6, 21 DAA): 85%

CCOc1cc(Oc2ccc(C(F)(F)F)cc2Cl)ccc1[N+](=O)[O-] [Oxyfluorfen]
Observed efficacy (%) of oxyfluorfen (430 g a.i./ha) ([2]; Table 3, 430 g a.i./ha): 70% | Observed efficacy (%) of oxyfluorfen (430 g a.i./ha) ([3]; Table 4, 14 DAA): 65% | Observed efficacy (%) of oxyfluorfen (430 g a.i./ha) ([3]; Table 4, 21 DAA): 50% | Observed efficacy (%) of oxyfluorfen (430 g a.i./ha) ([3]; Table 4, 28 DAA): 40%

Cc1nn(-c2cc(NS(C)(=O)=O)c(Cl)cc2Cl)c(=O)n1C(F)F [Sulfentrazone]
Observed efficacy (%) of sulfentrazone (300 g a.i./ha) ([2]; Table 5, 300 g a.i./ha): 30% | Observed efficacy (%) of sulfentrazone (300 g a.i./ha) ([3]; Table 6, 14 DAA): 25% | Observed efficacy (%) of sulfentrazone (300 g a.i./ha) ([3]; Table 6, 21 DAA): 15%
